Patent US20220233468A1 (priority 2021, published 2022)
Entries after “also recorded” stand apart in the source; their conditions may differ. Where two headings read alike, the source gives them in different places.

Legend:
[1] = tested on: SARS-CoV-2 S pseudovirions; assay: microbe, parasite or virus in culture; format: cell-based; settings: Severe acute respiratory syndrome coronavirus 2
TMPRSS2 = TMPRSS2 protein expression in cell lines by Western blotting; format: cell-based, human; mouse; settings: a-tubulin internal control, A549, H1299, CL1-5, Beas-2B, TC-1, MLE-12 cell lines, 18 to 24 hrs treatment
Method: The effects of Compound A and Compound B on TMPRSS2 were investigated in A549 (human alveolar epithelial cell), H1299 (human non-small cell lung carcinoma cell), CL1-5 (human lung adenocarcinoma cell), Beas-2B (human normal bronchial epithelial cell), TC-1 (mouse lung epithelial cell) and MLE-12 (mouse lung epithelial cell) cell lines. The expression of TMPRSS2 in cells was analyzed by Western blotting, and a-tubulin was used as an internal control.

[2] = read-out: EC50, inhibition of cellular entry of SARS-CoV-2 S pseudovirions

SMILES | EC50 [1, 2] [µM] | EC50 ([1]; read-out: EC50, prophylactic inhibition of cellular entry of pseudovirions, wild-type Spike) [µM] | protein expression of TMPRSS2 (TMPRSS2)
COc1ccc(/C=C/C(=O)C(CC2CCC2)C(=O)/C=C/c2ccc(OC)c(OC)c2)cc1OC [Compound B, 4-(cyclobutylmethyl)-1,7-bis(3,4-dimethoxyphenyl)hepta-1,6-diene-3,5-dione] | ~4.6 | ~3.5 | inhibit the protein expression of TMPRSS2; also recorded: greater TMPRSS2 inhibitory activity as compared to Compound A
COc1ccc(/C=C/C(=O)C(F)(CC2CCC2)C(=O)/C=C/c2ccc(OC)c(OC)c2)cc1OC [Compound A, 4-fluoro-4-cyclobutylmethyl-1,7-bis(3,4-dimethoxyphenyl)hepta-1,6-diene-3,5-dione] | ~5.3 | – | inhibit the protein expression of TMPRSS2
